Reference: article PMC11590106, “Computational Model-Assisted Development of a Nonenzymatic Fluorescent Glucose-Sensing Assay” (ACS Sensors, 2024)

What was measured:
Concanavalin A (ConA) [1] = target: T1, Concanavalin A (ConA) (Canavalia ensiformis, UniProt P02866); assay: competitive fluorescence anisotropy, displacement of Cy5.5-mannotetraose from PEG-ConA; assay type: binding; parameters: ConA Type IV (Sigma), PEGylated (5 kDa mPEG)
Concanavalin A (ConA) [2] = target: T1, Concanavalin A (ConA); assay: fluorescence anisotropy titration (association constant Ka); assay type: binding; parameters: ConA Type IV (Sigma), PEGylated (5 kDa mPEG); tetramer treated as one protein

T1 sequence (P02866 164-281 limits assumed): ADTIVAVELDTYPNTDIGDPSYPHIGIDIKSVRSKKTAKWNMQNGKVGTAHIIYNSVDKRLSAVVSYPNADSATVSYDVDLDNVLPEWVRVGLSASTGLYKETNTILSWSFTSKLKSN
T1 sequence (P02866 30-148 limits assumed): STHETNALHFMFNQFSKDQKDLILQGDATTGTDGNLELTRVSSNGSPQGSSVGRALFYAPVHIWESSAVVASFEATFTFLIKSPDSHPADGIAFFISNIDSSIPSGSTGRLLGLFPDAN

Compound	competitive fluorescence anisotropy, displacement of Cy5.5-mannotetraose from PE (Concanavalin A (ConA) [1])	fluorescence anisotropy titration (association constant Ka) (Concanavalin A (ConA) [2])
OC[C@H]1OC(O)[C@H](O)[C@@H](O)[C@@H]1O (stereo partly drawn) [glucose]	a sensitive response of the assay was observed for various glucose concentrations within the physiological range	
Cy5.5-mannobiose		1.73 × 10^6 M^–1
Cy5.5-mannotriose		5.33 × 10^6 M^–1
